Experimental data published in patent publication US11274295B2, “Methods for generating pools of variants of a DNA template” (priority 2012, dated 2022).

Columns and labels:
Format in all cases: cell-based
[1] = tested on: E. coli expressing WT APH(3′)II; assay: MIC of aminoglycosides in E. coli expressing WT APH(3′)II, immediately following transformation; details: Stellar cells transformed with WT pBR322-EM7-neo, LB with carbenicillin 50 μg/mL, 24 hrs, MIC = lowest dilution with A600 < 0.025; for MIC: Escherichia coli, read-out: estimated 1:1 WT MIC
Method: (§1) To determine the minimum inhibitory concentration (MIC) of each of the six aminoglycosides: kanamycin, ribostamycin, G418, amikacin, neomycin, paromomycin (Sigma-Aldrich, St. Louis, Mo.) in E. coli expressing WT APH(3′)II, Stellar cells were transformed with pBR322-EM7-neo, recovered in SOC medium (New England Biolabs (NEB), Ipswich, Mass.) at 37° C. for 1 hr, diluted 1:100 with LB and then divided into 96-well growth blocks containing LB with carbenicillin (50 μg/mL) and 2-fold serial dilutions of aminoglycosides. After growth at 37° C. with shaking for 24 hrs, the culture densities were assessed by absorbance at 600 nm (A600) using a NanoDrop 8000 (Thermo Scientific, Billerica, Mass.).
(§2) The cultures were incubated in 50 mL tubes at 37° C. with shaking for 24 hours, pelleted by centrifugation and frozen at −20° C. Plasmids were isolated from the pellets using QIAprep Spin Miniprep kits (Qiagen). Each transformation and selection was performed in duplicate, using each of the two independently generated mutant libraries.

untransformed e. coli = assay: Growth inhibition of untransformed E. coli by aminoglycoside; details: Table 2 experiment
[2] = tested on: E. coli transformed with APH(3′)II substitution libraries; assay: Mutational scanning selection of APH(3′)II substitution libraries in E. coli
Excerpt: To perform mutational scanning in vivo, we cultured E. coli transformed with APH(3′)II substitution libraries in liquid media supplemented with decreasing concentrations of one of six aminoglycoside antibiotics with diverse structures and a wide range of potencies: kanamycin, ribostamycin, G418, amikacin, neomycin or paromomycin (FIG. 3). To normalize the selective pressures induced by the different antibiotics, we first established their minimum inhibitory concentrations (MICs) for E. coli transformed with “wild-type” (WT) APH(3′)II and then used 1:1, 1:2, 1:4 and 1:8 dilutions of WT MICs for the respective library selections. We note that, with the exception of G418 and amikacin, even the 1:8 dilutions were sufficient to inhibit growth of untransformed E. coli. After overnight selection, plasmids were isolated from the surviving cells and their coding regions were shotgun sequenced to compare the amino acid composition of the selected libraries to that of the original input libraries (median coverage=51,400×).
as §2

[3] = tested on: E. coli transformed with APH(3′)II variants (pBR322[EM7-K1] through pBR322[EM7-K44]); assay: MIC of aminoglycosides in E. coli carrying synthetic APH(3′)II variants, 2-fold dilution series, A600; details: E. coli expressing the APH(3′)II variant, 2-3 independent cultures
Method: as §1
To establish the substrate specificity of the synthetic APH(3′)II variants relative to WT APH(3′)II, glycerol stocks of the relevant clones (pBR322[EM7-K1] through pBR322[EM7-K44]) were streaked onto LB agar plates and cultured overnight at 37° C. Single colonies were then inoculated into 1 mL LB with 50 μg carbenicillin, incubated at 37° C. with shaking for 6 hours, diluted 1:100 into LB media, and then split into 96-well deep well plates containing LB with carbenicillin (50 μg/mL) and 2-fold serial dilutions of aminoglycosides dilution series. We note that the longer recovery in these follow-up experiments increased the absolute MICs compared to those we measured immediately following transformation).

neomycin
estimated 1:1 WT MIC [1]: 40 µg/mL

NC[C@@H]1O[C@H](O[C@H]2[C@@H](O)[C@H](O[C@@H]3[C@@H](O)[C@H](N)C[C@H](N)[C@H]3O[C@H]3O[C@H](CO)[C@@H](O)[C@H](O)[C@H]3N)O[C@@H]2CO)[C@H](N)[C@@H](O)[C@@H]1O [paromomycin]
MIC [1]: 320 µg/mL

NC[C@H]1O[C@H](O[C@H]2[C@H](O)[C@@H](O[C@H]3O[C@H](CO)[C@@H](O)[C@H](N)[C@H]3O)[C@H](N)C[C@@H]2N)[C@H](O)[C@@H](O)[C@@H]1O [kanamycin]
MIC [1]: 225 µg/mL

NC[C@H]1O[C@H](O[C@H]2[C@H](O[C@@H]3O[C@H](CO)[C@@H](O)[C@H]3O)[C@@H](O)[C@H](N)C[C@@H]2N)[C@H](N)[C@@H](O)[C@@H]1O [ribostamycin]
MIC [1]: 2500 µg/mL

NCC[C@H](O)C(=O)N[C@@H]1C[C@H](N)[C@@H](O[C@H]2O[C@H](CN)[C@@H](O)[C@H](O)[C@H]2O)[C@H](O)[C@H]1O[C@H]1O[C@H](CO)[C@@H](O)[C@H](N)[C@H]1O [amikacin]
lowest concentration that reliably inhibited growth of untransformed e. coli (untransformed e. coli): (*) 12.5 ug/mL was the lowest amikacin concentration that reliably inhibited growth of untransformed e. coli in this experiment. These estimated MICs therefore reflect total or near total loss of activity on both susbtrates. | selection pressure ([2]; at its 1:4 and 1:8 WT MICs): did not provide an effective selection pressure | MIC [1]: 10 µg/mL

CN[C@@H]1[C@@H](O)[C@@H](O[C@@H]2[C@@H](O)[C@H](O[C@H]3O[C@H]([C@@H](C)O)[C@@H](O)[C@H](O)[C@H]3N)[C@@H](N)C[C@H]2N)OC[C@]1(C)O [G418]
selection pressure ([2]; at its 1:8 WT MIC): did not provide an effective selection pressure | estimated 1:1 WT MIC [1]: 5 µg/mL

B1: KKA2_KLEPN_opt_K1: Wild-type aminoglycoside-3′-phosphotransferase-II (APH(3′)II) (protein, UniProt P00552 1-264, looked up)
Aminoglycoside …: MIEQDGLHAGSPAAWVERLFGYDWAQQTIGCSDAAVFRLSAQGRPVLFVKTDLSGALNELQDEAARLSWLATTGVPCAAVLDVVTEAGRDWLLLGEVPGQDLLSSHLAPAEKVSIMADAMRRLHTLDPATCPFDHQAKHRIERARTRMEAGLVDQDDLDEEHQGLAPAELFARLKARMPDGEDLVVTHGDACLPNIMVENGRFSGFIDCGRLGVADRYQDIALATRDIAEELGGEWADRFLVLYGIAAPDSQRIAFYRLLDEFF
modifications: codon-optimized
MIC of G418 [3]: 50.00 µg/mL | MIC of amikacin [3]: 25.00 µg/mL | MIC of kanamycin [3]: 2000.00 µg/mL | MIC of neomycin [3]: 400.00 µg/mL | MIC of paromomycin [3]: 4000.00 µg/mL | MIC of ribostamycin [3]: 15000.00 µg/mL
